Assay results reported in the supplement of paper PMC13380429.
± gives the standard deviation of the averaged measurements.

What was measured:
Conditions in all cases: 72 h
[1] = system: Calu-3; assay: cell viability relative to DMSO; higher = less toxic
[2] = system: U2OS; assay: as above
[3] = system: Vero E6; assay: as above
[4] = system: HepG2; assay: as above
[5] = system: Caco-2; assay: as above
[6] = system: Calu-3; assay: drug sensitivity score (DSS) for viability; higher = more toxic; extreme values may be limits of the assay
[7] = system: U2OS; assay: as above
[8] = system: Vero E6; assay: as above
[9] = system: HepG2; assay: as above
[10] = system: Caco-2; assay: as above
[11] = system: Calu-3; assay: relative viability EC50 (midpoint between 100% and the lowest measured viability); higher = less toxic
[12] = system: U2OS; assay: as above
[13] = system: Vero E6; assay: as above
[14] = system: HepG2; assay: as above
[15] = system: Caco-2; assay: as above

SMILES	cell viability ([1]; 1 nM) [%]	cell viability ([1]; 10 nM) [%]	cell viability ([1]; 100 nM) [%]	cell viability ([1]; 1000 nM) [%]	cell viability ([1]; 10000 nM) [%]	cell viability ([2]; 1 nM) [%]	cell viability ([2]; 10 nM) [%]	cell viability ([2]; 100 nM) [%]	cell viability ([2]; 1000 nM) [%]	cell viability ([2]; 10000 nM) [%]	cell viability ([3]; 1 nM) [%]	cell viability ([3]; 10 nM) [%]	cell viability ([3]; 100 nM) [%]	cell viability ([3]; 1000 nM) [%]	cell viability ([3]; 10000 nM) [%]	cell viability ([4]; 1 nM) [%]	cell viability ([4]; 10 nM) [%]	cell viability ([4]; 100 nM) [%]	cell viability ([4]; 1000 nM) [%]	cell viability ([4]; 10000 nM) [%]	cell viability ([5]; 1 nM) [%]	cell viability ([5]; 10 nM) [%]	cell viability ([5]; 100 nM) [%]	cell viability ([5]; 1000 nM) [%]	cell viability ([5]; 10000 nM) [%]	drug sensitivity score [6]	drug sensitivity score [7]	drug sensitivity score [8]	drug sensitivity score [9]	drug sensitivity score [10]	relative viability EC50 [11] [µM]	relative viability EC50 [12] [µM]	relative viability EC50 [13] [µM]	relative viability EC50 [14] [µM]	relative viability EC50 [15] [µM]
Cc1nc(C)c(Cl)c(O)c1Cl [clopidol]	105	94.2	93.6	101	102	98.3	96.2	92.4	97.7	92.5	96.9	95.9	101	96.6	95.2	100	99.9	104	99.2	116	96.9	100	94.1	99.2	92.7	0	0	0	0	0	> 10	> 10	> 10	> 10	> 10
Cc1nc2c([nH]1)-c1ccccc1N(C(=O)c1ccc(NC(=O)c3ccccc3-c3ccccc3)cc1)CC2 [conivaptan]	102	106	105	94.1	96.6	101	103	96.3	104	97.6	97.9	100	97.3	89.4	100	97.9	97.1	101	93.6	101	97.5	94.3	91.2	102	91.7	0	0	0	0	0	> 10	> 10	> 10	> 10	> 10
CN1CCC(=C2c3ccccc3C=Cc3ccccc32)CC1 [cyproheptadine]	101	97.2	91.3	106	101	97.6	97.4	92.1	100	96.9	98.8	99.5	97.3	86.1	79.3	88.7	90.1	116	103	86.6	106	96.4	99.7	90.3	90.3	0	0	1.8	0	0	> 10	> 10	> 10	> 10	> 10
CC(C)(C)c1nc(-c2cccc(NS(=O)(=O)c3c(F)cccc3F)c2F)c(-c2ccnc(N)n2)s1 [dabrafenib]	88	93.8	106	99.3	124	102	93.2	107	95.3	102	96.5	104	103	79.8	102	96.4	90.9	78.3	65.9	30.4	103	97.1	98.2	77.8	101	0	0	0	9.8	0	> 10	> 10	> 10	0.49	> 10
CN[C@H]1C(=O)N[C@@H]2Cc3ccc(cc3)Oc3cc4cc(c3O[C@@H]3O[C@H](C(=O)O)[C@@H](O)[C@H](O)[C@H]3NC(=O)CCCCCCCCC(C)C)Oc3ccc(cc3Cl)[C@@H](O)[C@@H]3NC(=O)[C@H](NC(=O)[C@@H]4NC(=O)[C@@H](NC2=O)c2cc(cc(O)c2Cl)Oc2cc1ccc2O)c1ccc(O)c(c1)-c1c(O[C@H]2O[C@H](CO)[C@@H](O)[C@H](O)[C@@H]2O)cc(O)cc1[C@@H](C(=O)NCCCN(C)C)NC3=O [dalbavancin]	95.2	102	95.2	103	95	99.1	100	96.9	98	95.8	111	114	109	87.3	102	88.7	94.3	118	91.4	116	89.3	106	92.6	111	90.1	0	0	0	0	0	> 10	> 10	> 10	> 10	> 10
CCCC(=O)O[C@]1(C(=O)COC(C)=O)CC[C@H]2[C@@H]3C[C@H](F)C4=CC(=O)C=C[C@]4(C)[C@@]3(F)[C@@H](O)C[C@@]21C [difluprednate]	106	90.7	87.7	90.5	102	99.5	93.3	93.4	94.1	92.1	96.9	97	95.3	98.9	94.2	97.5	93.7	107	105	88.3	96.6	93.2	98.3	101	91.8	0	0	0	0	0	> 10	> 10	> 10	> 10	> 10
Cc1ccc2c(c1)[C@]13CCCC[C@@H]1[C@H](C2)N(C)CC3 [dimemorfan]	89.1	95.5	89.1	89.2	98.7	96.8	102	95.7	101	93.7	101	103	104	98.7	106	105	103	99	95.3	101	93.5	96.5	94.6	103	91.8	0	0	0	0	0	> 10	> 10	> 10	> 10	> 10
Fc1ccc2nc(CCC#Cc3ccccn3)cn2c1 [dipraglurant]	92.1	100	95.2	99.4	88	100	97.3	95.3	93.9	99.9	94.8	100	91.6	93.3	110	99.9	99.8	103	104	106	102	94.2	106	99.5	99.3	0.1	0	0	0	0	> 10	> 10	> 10	> 10	> 10
OCC(O)CN1CCN(c2ccccc2)CC1 (stereo not given) [dropropizine]	106 ± 1.6	97.85 ± 0.64	104 ± 4.5	99.6 ± 1.3	97.85 ± 0.21	99.9 ± 5	97.3 ± 4.9	100.5 ± 0.49	97.7 ± 0.14	102.8 ± 0.35	96.6 ± 7.5	95.8 ± 1.5	94.2 ± 8.5	96.7 ± 6.7	103 ± 8.4	94.8 ± 4.6	101 ± 4.9	102 ± 1.6	99.5 ± 3.2	88.9 ± 5.2	89.7 ± 5	85.2 ± 12	97.8 ± 2.9	91.9 ± 0.57	96.3 ± 9.9	0	0	0	0.1 ± 0.14	0	> 10	> 10	> 10	> 10	> 10
CCN(CC)CCOc1ccccc1C(=O)CCc1ccccc1 [etafenone]	96.9	99	106	108	101	94.8	101	97.9	103	103	93.2	93	101	91.8	102	98.6	90.6	106	94.7	94.3	93.3	104	94	103	100	0	0	0	0	0	> 10	> 10	> 10	> 10	> 10
CCOC(=O)c1ccccc1OC(N)=O [ethyl-2-(carbamoyloxy)benzoate]	93.2	92.5	98	122	103	98.6	103	100	102	98.6	109	91.4	102	106	103	106	87.2	94.2	83.5	103	104	91.5	97.1	106	96.9	0	0	0	0	0	> 10	> 10	> 10	> 10	> 10
CC(C)=CCC/C(C)=C/CC/C(C)=C/CSc1ccccc1C(N)=O [farnesyl-thiosalicylic-acid-amide]	106	92.4	108	105	111	98.9	100	105	98.3	102	89.8	101	92.8	87.1	99.7	100	105	96.6	108	85.7	104	116	95	116	104	0	0	0	0.1	0	> 10	> 10	> 10	> 10	> 10
COC(=O)/C=C/c1cccc(N(Cc2ccc(-c3ccc(N(C)C)cc3)cc2)C(=O)C2CCCCC2)c1 [fexaramine]	110	95.4	104	96.5	92.3	103	97.5	99.9	97	88.5	107	103	99.4	98.3	88.8	105	104	97.4	101	83.5	104	99.9	104	92	81.1	0	0.1	0.1	0.3	1.3	> 10	> 10	> 10	> 10	> 10
Fc1ccc(C(c2ccc(F)cc2)N2CCN(C/C=C/c3ccccc3)CC2)cc1 [flunarizine]	95.8	98.9	96.5	95.8	87.4	96.1	101	97.7	98.4	88.8	104	103	107	102	92.3	106	102	106	96.3	82.8	99.8	102	104	103	81.6	0	0.1	0	0.8	0.3	> 10	> 10	> 10	> 10	> 10
CC(=O)[C@@]1(O)CC[C@H]2[C@@H]3C[C@H](C)C4=CC(=O)C=C[C@]4(C)[C@@]3(F)[C@@H](O)C[C@@]21C [fluorometholone]	93.2	98.3	94.1	92.5	87.9	96.4	97.9	91.1	97	92.3	105	101	102	97.5	101	96.3	96.7	101	90.8	96.9	94.1	96.2	96.4	99.7	124	0	0	0	0	0	> 10	> 10	> 10	> 10	> 10
COc1ccc(CC(C)NCC(O)c2ccc(O)c(NC=O)c2)cc1 (stereo not given) [formoterol]	99.3	101	101	88.1	92.4	95.5	102	97.2	105	97.8	93.9	91.5	97.2	95.3	104	101	89.4	98.5	93.7	105	96	90.2	93.4	100	98.5	0.5	0	0	0	0	> 10	> 10	> 10	> 10	> 10
C#C[C@]1(O)C=C[C@H]2[C@@H]3CCC4=CC(=O)CC[C@@H]4[C@H]3CC[C@@]21CC [gestodene]	95.9	101	101	88.5	108	96.3	99.2	94.3	96	102	95.9	96.8	96.3	94.3	106	103	102	111	105	99.7	90.1	89.6	98.9	100	98.7	0	0	0	0	0	> 10	> 10	> 10	> 10	> 10
CC(C)=CCC[C@](C)(O[C@@H]1O[C@H](CO)[C@@H](O)[C@H](O)[C@H]1O)[C@H]1CC[C@]2(C)[C@@H]1[C@H](O)C[C@@H]1[C@@]3(C)CC[C@H](O[C@@H]4O[C@H](CO)[C@@H](O)[C@H](O)[C@H]4O[C@@H]4O[C@H](CO)[C@@H](O)[C@H](O)[C@H]4O)C(C)(C)[C@@H]3CC[C@]12C [ginsenoside-RD]	105	103	101	107	99.8	102	98.9	101	100	102	99.6	101	97.2	100	99.3	94.2	97.3	101	88.9	89.6	105	98.7	94.4	92.3	104	0	0	0	0.3	0	> 10	> 10	> 10	> 10	> 10
CN1CC[C@@H](NC(=O)Nc2ccc(C#N)cc2)C[C@@H]1c1nc2ccccc2[nH]1 [glasdegib]	92.6	110	96.9	111	104	96.3	102	94.9	98.5	98.3	102	103	102	100	97.1	108	99	99.1	96.2	92	98.4	96.5	94.1	97.1	83.5	0	0	0	0	0.6	> 10	> 10	> 10	> 10	> 10
COc1ccc2c(c1)c(C1=C(c3c[nH]c4ccccc34)C(=O)NC1=O)cn2CCCN(C)C [go-6983]	98.9	85.1	99	83.9	84	94.4	92.2	104	91.4	79.6	108	104	97.7	103	75.3	105	94.7	87.1	105	31.7	110	95.6	108	101	85.7	1.2	1.6	0.7	3.4	0.2	> 10	> 10	> 10	3.52	> 10
